For assay [1], the target named is T1, Leukotriene A-4 hydrolase (Homo sapiens, UniProt P09960).
T1 sequence (P09960 whole entry): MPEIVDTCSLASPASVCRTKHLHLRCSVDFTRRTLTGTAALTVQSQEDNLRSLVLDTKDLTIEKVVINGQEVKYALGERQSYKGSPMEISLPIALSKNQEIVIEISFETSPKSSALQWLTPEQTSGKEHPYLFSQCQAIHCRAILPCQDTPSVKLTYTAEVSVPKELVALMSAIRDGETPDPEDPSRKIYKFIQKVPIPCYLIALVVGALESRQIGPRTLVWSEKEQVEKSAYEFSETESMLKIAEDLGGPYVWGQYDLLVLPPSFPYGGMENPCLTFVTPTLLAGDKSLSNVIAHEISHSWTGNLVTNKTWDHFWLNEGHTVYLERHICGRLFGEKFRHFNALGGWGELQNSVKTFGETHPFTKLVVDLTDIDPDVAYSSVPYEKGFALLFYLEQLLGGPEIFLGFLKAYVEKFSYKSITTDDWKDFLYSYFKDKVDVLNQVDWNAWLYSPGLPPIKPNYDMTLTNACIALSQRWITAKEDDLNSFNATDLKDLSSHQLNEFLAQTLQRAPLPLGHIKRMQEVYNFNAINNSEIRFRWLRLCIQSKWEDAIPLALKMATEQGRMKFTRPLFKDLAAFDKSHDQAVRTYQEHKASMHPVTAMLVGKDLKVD
Kind of assay: Inhibition of human whole blood LTB-4 production (Leukotriene B-4). Type of assay: functional.

Assay [2] deals with Mus musculus. Briefly: Percentage inhibition of mouse ex vivo whole blood LTB-4 production (Leukotriene B-4) at a concentration of 10 mg/kg. Type of assay: functional.
The species entered for assay [3] is Mus musculus. Briefly: Effective dose measured for mouse ex vivo whole blood LTB-4 production (Leukotriene B-4). Type of assay: functional.
Assay [4] addresses T1, Leukotriene A-4 hydrolase. Briefly: Inhibition of human leukotriene A4 hydrolase (LTA-4).
The species entered for assay [5] is Mus musculus. Briefly: Effective dose measured for mouse ex vivo whole blood LTB-4 production; Range is from 1-3. Type of assay: functional.
Assay [6] is filed under the species Mus musculus. Briefly: Effective dose measured for mouse ex vivo whole blood LTB-4 production; Range is from 3-10. Type of assay: functional.
For assay [7], the species on record is Mus musculus. Briefly: Effective dose measured for mouse ex vivo whole blood LTB-4 production; Range is from 1-3. Type of assay: functional.

Some results are limits rather than exact numbers.

As a reminder, the IC50 is the point on the concentration scale where inhibition reaches its midpoint. A lower IC50 goes with greater potency in that assay. As a reminder, the inhibition in vivo is how much of the control response was suppressed. A lower inhibition in vivo goes with a weak effect.

In assay [1], `CCOC(=O)CNCCCOc1ccc(Cc2ccccc2)cc1` gave a half-maximal inhibitory concentration (IC50) of 1100 nM. The same molecule came in with an inhibition in vivo at 10 mg/kg in assay [2] of 22%.
In assay [1], `CCOC(=O)CCNCCCCOc1ccc(Cc2ccccc2)cc1` came in with an IC50 of 76 nM. For the same molecule, the ED90 in assay [3] was 3 mg/kg.
The matching figures for `CCOC(=O)CNCCCCCOc1ccc(Cc2ccccc2)cc1`: 420 nM and 10 mg/kg.
Regarding `CN(CCCOc1ccc(Cc2ccccc2)cc1)CCC(N)=O`, the half-inhibitory concentration (IC50) was 110 nM in assay [1] and 7 nM in assay [4]. In assay [2], this molecule returned an inhibition in vivo at 10 mg/kg of 98%.
As for `CN(CCCOc1ccc(Cc2ccccc2)cc1)CCn1cnnn1`, the values for the IC50 in assay [1] and in assay [4] were 560 nM and 1650 nM, respectively.
`O=C(O)CCNCCCOc1ccc(Cc2ccccc2)cc1` gave an IC50 in assay [1] of 280 nM. This molecule also showed an ED90 in assay [3] of at least 10 mg/kg.
As to `COC(=O)CCN(C)CCCOc1ccc(Cc2ccsc2)cc1`, the IC50 was determined as 250 nM in assay [1] and 870 nM in assay [4]. The molecule also came in with an ED90 in assay [5] of 3 mg/kg.
As to `O=C(O)CCNCCCCOc1ccc(Cc2ccccc2)cc1`, in assay [1], the IC50 was 490 nM. This molecule had an inhibition in vivo at 10 mg/kg in assay [2] of 70%.
For `CN(CCCCOc1ccc(Cc2ccccc2)cc1)CC(=O)O`, the values for the IC50 in assay [1] and in assay [4] were 450 nM and 110 nM, respectively.
On to `c1coc(-c2ccc(Oc3ccc(OCCN4CCCC4)cc3)cc2)n1`, for which 10 mg/kg produced 93% inhibition in vivo in assay [2].
Take `CCOC(=O)CN(C)CCCCOc1ccc(Cc2ccccc2)cc1`: the values for the IC50 in assay [1] and in assay [4] were 3300 nM and 6600 nM, respectively.
The matching figures for `CCOC(=O)CCN(C)CCCCOc1ccc(Cc2ccccc2)cc1`: 520 nM and above 10000 nM.
As to `CN(CCCOc1ccc(Cc2ccccc2)cc1)CCS(N)(=O)=O`, the IC50 came out at 740 nM in assay [1] and 4 nM in assay [4]. Further, in assay [2], the inhibition in vivo at 10 mg/kg amounted to 84%.
Take `CN(CCCOc1ccc(Oc2ccccc2)cc1)CCC(=O)O`: the figures for the 50% inhibitory concentration (IC50) in assay [1] and in assay [4] were 230 nM and 19 nM, respectively. Also, in assay [3], the ED90 is 3 mg/kg.
In the case of `CCOC(=O)CCNCCCOc1ccc(Cc2ccccc2)cc1`, the figures for the IC50 in assay [1] and in assay [4] were 450 nM and 84 nM, respectively.
As for `CN(CCCOc1ccc(Cc2cccs2)cc1)CCC(=O)O`, the ED90 in assay [6] came to 10 mg/kg.
In the case of `CN(CCCOc1ccc(Oc2ccc(-c3nccs3)cc2)cc1)CCC(=O)O`, the IC50 in assay [1] was determined as 72 nM. Further, testing at 10 mg/kg in assay [2] gave an inhibition in vivo of 87%.
In turn, `CCOC(=O)CNCCCCOc1ccc(Cc2ccccc2)cc1` returned a 50% inhibitory concentration (IC50) in assay [1] of 350 nM. In assay [3], the ED90 was at least 10 mg/kg.
`CCOC(=O)CNCCOc1ccc(Cc2ccccc2)cc1`: the values for the IC50 in assay [1] and in assay [4] were above 30000 nM and 2500 nM, respectively.
For `CCOC(=O)CCCCNCCOc1ccc(Cc2ccccc2)cc1`, in that order: 2500 nM and 10700 nM.
With `COC(=O)CCN(C)CCCOc1ccc(Cc2cccnc2)cc1`, the inhibition in vivo at 10 mg/kg in assay [2] turned out to be 58%.
As to `CCOC(=O)CCCNCCOc1ccc(Cc2ccccc2)cc1`, the values for the half-inhibitory concentration (IC50) in assay [1] and in assay [4] were 2500 nM and 3700 nM, respectively.
The matching figures for `CN(CCCOc1ccc(Cc2ccccc2)cc1)CCS(=O)(=O)O`: 5200 nM and 220 nM.
For the molecule `CN(CCCOc1ccc(Oc2ccc(-c3ccccc3)cc2)cc1)CCC(=O)O`, the IC50 is 190 nM in assay [1] and below 0.5 nM in assay [4]. In assay [3], this molecule had an ED90 of 10 mg/kg.
In turn, `CN(CCCOc1ccc(Oc2ccc(-c3ncco3)cc2)cc1)CCC(=O)O` showed an IC50 in assay [1] of 190 nM. The molecule further came in with an ED90 in assay [3] of at least 10 mg/kg.
The matching figures for `CN(CCCOc1ccc(Cc2ccccc2)cc1)CCC(=O)NS(C)(=O)=O`: 70 nM and at most 1 mg/kg.
The matching figures for `CN(CCCOc1ccc(Cc2ccc(F)cc2)cc1)CCC(=O)O`: 190 nM and at least 10 mg/kg.
Regarding `O=C(O)CNCCCCOc1ccc(Cc2ccccc2)cc1`, the IC50 came to 230 nM in assay [1] and 1.3 nM in assay [4]. The molecule also displayed an ED90 in assay [3] of at least 10 mg/kg.
For `CCOC(=O)CCN(C)CCCOc1ccc(Cc2ccccc2)cc1`, in assay [1], the midpoint of inhibition, the IC50, lay at 110 nM. In assay [6], this molecule showed an ED90 of 10 mg/kg.
As to `CN(CCCOc1ccc(Oc2ccc(F)cc2)cc1)CCC(=O)O`, the half-inhibitory concentration (IC50) in assay [1] amounted to 210 nM; in assay [4], 160 nM. The ED90 in assay [3] is 3 mg/kg.
With `COC(=O)CCNCCOc1ccc(Cc2ccccc2)cc1`, half-maximal inhibition in assay [1] (IC50) was put at 590 nM.
As for `COC(=O)CCCN(C)CCOc1ccc(Cc2ccccc2)cc1`, the IC50 was 460 nM in assay [1] and 450 nM in assay [4]. The ED90 in assay [3] was at least 10 mg/kg.
Turning to `CN(CCCOc1ccc(Cc2ccsc2)cc1)CCC(=O)O`, the ED90 in assay [6] was 10 mg/kg.
Take `CN(CCCOc1ccc(Cc2ccccc2)cc1)CCC(=O)O.Cl`: the ED90 in assay [7] is 3 mg/kg.
The molecule `COC(=O)CCN(C)CCCOc1ccc(Cc2cccs2)cc1` had an IC50 in assay [1] of 95 nM. This molecule yielded an ED90 in assay [6] of 10 mg/kg.
As for `CN(CCCOc1ccc(Cc2ccccc2)cc1)CCC(=O)NS(=O)(=O)c1ccccc1`, the IC50 in assay [1] worked out at 75 nM. Further, the ED90 in assay [3] is 3 mg/kg.
In turn, `c1ccc(-c2ccc(OCCN3CCCC3)cc2)cc1` came in with an inhibition in vivo at 10 mg/kg in assay [2] of 9%.

These data come from ChEMBL document CHEMBL1135532, “Synthesis of potent leukotriene A(4) hydrolase inhibitors. Identification of 3-[methyl[3-[4-(phenylmethyl)phenoxy]propyl]amino]propanoic acid” (J Med Chem, 2002).
